The source made the active and inactive calls.
Columns and labels:
Heme oxygenase 2 = target: T1, Heme oxygenase 2 (Homo sapiens, UniProt P30519)
T1 sequence (P30519 whole entry): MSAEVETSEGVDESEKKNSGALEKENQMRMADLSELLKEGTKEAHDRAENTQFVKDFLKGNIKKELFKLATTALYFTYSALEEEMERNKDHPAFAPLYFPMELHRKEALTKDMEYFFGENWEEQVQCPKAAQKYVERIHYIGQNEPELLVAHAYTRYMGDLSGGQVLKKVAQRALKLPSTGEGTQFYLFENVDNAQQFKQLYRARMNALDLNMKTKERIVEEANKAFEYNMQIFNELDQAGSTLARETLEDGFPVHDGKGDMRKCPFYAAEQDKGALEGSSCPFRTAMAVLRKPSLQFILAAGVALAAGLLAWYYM

[1] = target: Epithelial discoidin domain-containing receptor 1 (Homo sapiens, UniProt Q08345)
[2] = target: T2, Serine/threonine-protein kinase ULK1 (Homo sapiens, UniProt O75385)
T2 sequence (O75385 whole entry): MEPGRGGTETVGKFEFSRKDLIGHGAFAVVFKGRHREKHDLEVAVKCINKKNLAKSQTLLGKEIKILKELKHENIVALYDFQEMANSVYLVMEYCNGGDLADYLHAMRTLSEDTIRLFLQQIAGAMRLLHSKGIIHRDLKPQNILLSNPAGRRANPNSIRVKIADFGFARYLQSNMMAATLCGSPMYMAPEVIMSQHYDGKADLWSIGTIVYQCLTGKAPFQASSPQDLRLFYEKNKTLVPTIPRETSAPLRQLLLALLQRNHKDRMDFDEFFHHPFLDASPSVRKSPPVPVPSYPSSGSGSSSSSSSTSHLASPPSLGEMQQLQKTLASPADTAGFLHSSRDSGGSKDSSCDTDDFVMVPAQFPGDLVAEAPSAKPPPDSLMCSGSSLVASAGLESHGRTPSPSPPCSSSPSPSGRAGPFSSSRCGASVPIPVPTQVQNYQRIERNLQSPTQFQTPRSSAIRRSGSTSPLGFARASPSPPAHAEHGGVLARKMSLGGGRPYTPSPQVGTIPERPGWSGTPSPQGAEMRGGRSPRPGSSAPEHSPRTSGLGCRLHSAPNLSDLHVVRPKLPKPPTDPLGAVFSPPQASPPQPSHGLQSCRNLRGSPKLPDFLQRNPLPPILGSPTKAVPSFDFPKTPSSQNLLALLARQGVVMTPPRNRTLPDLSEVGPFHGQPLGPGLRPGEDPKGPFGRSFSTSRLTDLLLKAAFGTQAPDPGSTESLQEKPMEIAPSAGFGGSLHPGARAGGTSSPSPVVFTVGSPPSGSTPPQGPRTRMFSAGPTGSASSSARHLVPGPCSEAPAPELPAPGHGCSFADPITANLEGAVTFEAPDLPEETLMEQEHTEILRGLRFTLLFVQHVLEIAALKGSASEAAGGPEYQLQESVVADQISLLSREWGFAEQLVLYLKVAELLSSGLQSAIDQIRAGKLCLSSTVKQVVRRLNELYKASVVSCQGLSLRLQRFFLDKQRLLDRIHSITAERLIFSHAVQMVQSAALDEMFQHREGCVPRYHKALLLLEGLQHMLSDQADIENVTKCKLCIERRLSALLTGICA

[3] = target: RAC-alpha serine/threonine-protein kinase (Homo sapiens, UniProt P31749)
[4] = target: T3, Tyrosine--tRNA ligase, cytoplasmic (Homo sapiens, UniProt P54577)
T3 sequence (P54577 whole entry): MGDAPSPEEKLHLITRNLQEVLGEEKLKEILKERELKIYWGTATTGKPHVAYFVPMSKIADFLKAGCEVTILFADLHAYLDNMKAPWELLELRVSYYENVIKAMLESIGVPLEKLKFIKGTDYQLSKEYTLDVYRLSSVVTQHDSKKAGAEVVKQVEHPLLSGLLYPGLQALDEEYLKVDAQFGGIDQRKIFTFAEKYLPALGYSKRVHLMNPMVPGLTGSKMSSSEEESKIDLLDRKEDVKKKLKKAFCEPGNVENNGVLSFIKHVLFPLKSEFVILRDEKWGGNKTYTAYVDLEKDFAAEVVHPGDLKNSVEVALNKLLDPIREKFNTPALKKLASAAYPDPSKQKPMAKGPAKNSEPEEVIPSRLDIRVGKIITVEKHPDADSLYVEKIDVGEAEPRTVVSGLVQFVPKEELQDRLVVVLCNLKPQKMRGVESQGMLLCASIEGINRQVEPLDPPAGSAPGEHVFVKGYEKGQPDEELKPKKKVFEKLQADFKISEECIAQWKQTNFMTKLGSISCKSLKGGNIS

[5] = target: Mitogen-activated protein kinase 11 (Homo sapiens, UniProt Q15759)
[6] = target: T4, Succinate--CoA ligase [ADP-forming] subunit beta, mitochondrial (Homo sapiens, UniProt Q9P2R7)
T4 sequence (Q9P2R7 whole entry): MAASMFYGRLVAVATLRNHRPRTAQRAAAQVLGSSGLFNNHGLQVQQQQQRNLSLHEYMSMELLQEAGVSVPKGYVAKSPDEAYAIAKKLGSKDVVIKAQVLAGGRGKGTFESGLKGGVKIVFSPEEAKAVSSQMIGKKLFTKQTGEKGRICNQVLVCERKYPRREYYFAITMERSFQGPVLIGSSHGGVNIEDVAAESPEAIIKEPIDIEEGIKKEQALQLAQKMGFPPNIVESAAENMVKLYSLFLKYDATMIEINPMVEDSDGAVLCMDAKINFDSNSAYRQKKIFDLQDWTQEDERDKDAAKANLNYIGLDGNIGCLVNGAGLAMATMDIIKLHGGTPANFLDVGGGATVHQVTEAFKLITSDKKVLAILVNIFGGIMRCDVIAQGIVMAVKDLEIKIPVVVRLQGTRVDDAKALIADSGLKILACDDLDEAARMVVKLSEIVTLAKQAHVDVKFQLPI
Further: in the data inactive means no Kd found up to 30 µM.

Chain of Epithelial discoidin domain-containing receptor 1 (Q08345 whole entry, the tested form may be a part): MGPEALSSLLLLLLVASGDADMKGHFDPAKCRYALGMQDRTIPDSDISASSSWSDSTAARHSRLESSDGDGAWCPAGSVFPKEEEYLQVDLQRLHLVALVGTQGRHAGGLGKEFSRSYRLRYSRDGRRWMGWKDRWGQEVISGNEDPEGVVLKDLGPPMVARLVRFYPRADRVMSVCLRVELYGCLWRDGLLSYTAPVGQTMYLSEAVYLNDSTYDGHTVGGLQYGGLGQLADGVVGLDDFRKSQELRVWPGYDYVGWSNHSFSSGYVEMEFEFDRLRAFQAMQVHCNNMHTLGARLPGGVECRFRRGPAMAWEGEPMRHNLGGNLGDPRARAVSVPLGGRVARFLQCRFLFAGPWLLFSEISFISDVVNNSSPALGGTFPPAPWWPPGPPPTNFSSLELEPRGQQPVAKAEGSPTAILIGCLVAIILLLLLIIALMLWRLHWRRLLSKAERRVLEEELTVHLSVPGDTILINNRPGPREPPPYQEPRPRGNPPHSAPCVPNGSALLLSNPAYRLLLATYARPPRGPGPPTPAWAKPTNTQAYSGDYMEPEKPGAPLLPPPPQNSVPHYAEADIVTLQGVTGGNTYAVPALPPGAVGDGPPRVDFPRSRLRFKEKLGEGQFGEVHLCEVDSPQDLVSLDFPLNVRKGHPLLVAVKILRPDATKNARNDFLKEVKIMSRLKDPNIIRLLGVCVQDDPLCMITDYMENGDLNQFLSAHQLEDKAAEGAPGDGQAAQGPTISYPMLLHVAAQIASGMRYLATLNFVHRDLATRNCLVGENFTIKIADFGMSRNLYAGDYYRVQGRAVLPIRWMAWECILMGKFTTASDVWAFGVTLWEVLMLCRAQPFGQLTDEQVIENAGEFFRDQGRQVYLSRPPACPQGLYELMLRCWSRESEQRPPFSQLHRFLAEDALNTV
Chain of Mitogen-activated protein kinase 11 (Q15759 whole entry): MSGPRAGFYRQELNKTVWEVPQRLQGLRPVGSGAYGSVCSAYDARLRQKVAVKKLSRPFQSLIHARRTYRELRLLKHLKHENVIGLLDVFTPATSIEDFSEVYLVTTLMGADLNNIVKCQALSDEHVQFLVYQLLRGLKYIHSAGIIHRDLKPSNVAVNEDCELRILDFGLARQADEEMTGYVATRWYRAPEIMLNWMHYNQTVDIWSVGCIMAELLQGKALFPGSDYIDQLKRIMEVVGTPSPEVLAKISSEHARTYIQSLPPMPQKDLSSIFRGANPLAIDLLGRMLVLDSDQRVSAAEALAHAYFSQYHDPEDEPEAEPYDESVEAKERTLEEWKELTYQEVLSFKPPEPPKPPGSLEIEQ
Chain of RAC-alpha serine/threonine-protein kinase (P31749 whole entry): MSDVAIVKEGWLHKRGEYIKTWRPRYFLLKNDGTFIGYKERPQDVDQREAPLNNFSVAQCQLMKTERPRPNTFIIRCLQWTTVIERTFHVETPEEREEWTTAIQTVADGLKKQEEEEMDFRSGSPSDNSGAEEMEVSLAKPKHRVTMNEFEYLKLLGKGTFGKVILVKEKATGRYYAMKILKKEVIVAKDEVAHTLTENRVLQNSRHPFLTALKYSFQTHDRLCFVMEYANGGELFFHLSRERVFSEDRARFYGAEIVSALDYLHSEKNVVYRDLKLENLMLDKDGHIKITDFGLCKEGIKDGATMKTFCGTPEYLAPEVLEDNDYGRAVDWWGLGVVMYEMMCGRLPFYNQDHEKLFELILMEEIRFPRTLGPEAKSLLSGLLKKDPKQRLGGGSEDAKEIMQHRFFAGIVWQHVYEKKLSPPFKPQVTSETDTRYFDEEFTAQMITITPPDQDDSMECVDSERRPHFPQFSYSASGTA

Structure (SMILES)	Kd (Heme oxygenase 2)	Kd [1]	Kd [2]	Kd [3]	Kd [4]	Kd [5]	Kd [6]
CC(C)Nc1cc(-c2c[nH]c(C(=O)N[C@H](CO)c3cccc(Cl)c3)c2)c(Cl)cn1 [ULIXERTINIB]	> 30 µM (inactive)	> 30 µM (inactive)	> 30 µM (inactive)	> 30 µM (inactive)	> 30 µM (inactive)	> 30 µM (inactive)	> 30 µM (inactive)
COc1cc2nccc(Oc3ccc(NC(=O)NC4CC4)c(Cl)c3)c2cc1C(N)=O [LENVATINIB]	> 30 µM (inactive)	0.046 µM (active)	> 30 µM (inactive)	> 30 µM (inactive)	> 30 µM (inactive)	> 30 µM (inactive)	> 30 µM (inactive)
Cc1ccc(-n2nc(C(C)(C)C)cc2NC(=O)NCc2cc(F)ccc2Oc2ccc3c(cnn3CCO)c2)cc1 [PEXMETINIB]	> 30 µM (inactive)	0.363 µM (active)	> 30 µM (inactive)	> 30 µM (inactive)	> 30 µM (inactive)	0.192 µM (active)	> 30 µM (inactive)
CC(=O)Nc1cccc(-n2c(=O)n(C3CC3)c(=O)c3c(Nc4ccc(I)cc4F)n(C)c(=O)c(C)c32)c1 [TRAMETINIB]	> 30 µM (inactive)	> 30 µM (inactive)	> 30 µM (inactive)	> 30 µM (inactive)	> 30 µM (inactive)	> 30 µM (inactive)	> 30 µM (inactive)
COC(=O)N[C@@H](C)CNc1nccc(-c2cn(C(C)C)nc2-c2cc(Cl)cc(NS(C)(=O)=O)c2F)n1 [ENCORAFENIB]	> 30 µM (inactive)	> 30 µM (inactive)	> 30 µM (inactive)	> 30 µM (inactive)	> 30 µM (inactive)	> 30 µM (inactive)	> 30 µM (inactive)
CCn1c(=O)c(-c2cc[nH]n2)cc2c(C)nc(N)nc21 [VOXTALISIB]	> 30 µM (inactive)	> 30 µM (inactive)	> 30 µM (inactive)	> 30 µM (inactive)	> 30 µM (inactive)	> 30 µM (inactive)	> 30 µM (inactive)
Cc1ccc(NC(=O)c2ccc(CN3CC[C@H](N(C)C)C3)c(C(F)(F)F)c2)cc1Nc1nccc(-c2cncnc2)n1 [BAFETINIB]	> 30 µM (inactive)	0.014 µM (active)	> 30 µM (inactive)	> 30 µM (inactive)	> 30 µM (inactive)	1.72 µM	> 30 µM (inactive)
N[C@@H]1CCCN(c2c(/C=C3\SC(=O)NC3=O)cccc2-c2ccccc2)C1	> 30 µM (inactive)	> 30 µM (inactive)	> 30 µM (inactive)	> 30 µM (inactive)	> 30 µM (inactive)	> 30 µM (inactive)	> 30 µM (inactive)
CNC(=O)CN1CCC(Oc2cc3c(Nc4cccc(Cl)c4F)ncnc3cc2OC)CC1 [SAPITINIB]	> 30 µM (inactive)	> 30 µM (inactive)	> 30 µM (inactive)	> 30 µM (inactive)	> 30 µM (inactive)	> 30 µM (inactive)	> 30 µM (inactive)
CNC(=O)c1cc(Oc2ccc(NC(=O)Nc3ccc(Cl)c(C(F)(F)F)c3)c(F)c2)ccn1 [REGORAFENIB]	> 30 µM (inactive)	0.358 µM (active)	> 30 µM (inactive)	> 30 µM (inactive)	> 30 µM (inactive)	1.91 µM (active)	> 30 µM (inactive)
CN1CC[C@@H](c2c(O)cc(O)c3c(=O)cc(-c4ccccc4Cl)oc23)[C@@H]1CO	> 30 µM (inactive)	> 30 µM (inactive)	> 30 µM (inactive)	> 30 µM (inactive)	> 30 µM (inactive)	> 30 µM (inactive)	> 30 µM (inactive)
C1=C/COCc2cc(ccc2OCCN2CCCC2)Nc2nccc(n2)-c2cccc(c2)COC/1 [PACRITINIB]	> 30 µM (inactive)	71.5 µM (active)	> 30 µM (inactive)	> 30 µM (inactive)	> 30 µM (inactive)	> 30 µM (inactive)	> 30 µM (inactive)
CNC(=O)c1ccc(-c2cnc3ncc(Cc4ccc5ncccc5c4)n3n2)cc1F [CAPMATINIB]	> 30 µM (inactive)	> 30 µM (inactive)	> 30 µM (inactive)	> 30 µM (inactive)	> 30 µM (inactive)	> 30 µM (inactive)	> 30 µM (inactive)
C[C@@H](c1ccc2nccn2c1)n1nnc2ncc(-c3cnn(C)c3)nc21 [SAVOLITINIB]	> 30 µM (inactive)	> 30 µM (inactive)	> 30 µM (inactive)	> 30 µM (inactive)	> 30 µM (inactive)	> 30 µM (inactive)	> 30 µM (inactive)

Results, then the compound that gave them:

Kd (Heme oxygenase 2)	Kd [1]	Kd [2]	Kd [3]	Kd [4]	Kd [5]	Kd [6]	Structure (SMILES)
> 30 µM (inactive)	> 30 µM (inactive)	> 30 µM (inactive)	> 30 µM (inactive)	> 30 µM (inactive)	> 30 µM (inactive)	> 30 µM (inactive)	OCCn1cc(-c2cnc3nnn(Cc4ccc5ncccc5c4)c3n2)cn1 [PF-04217903]
> 30 µM (inactive)	> 30 µM (inactive)	> 30 µM (inactive)	> 30 µM (inactive)	> 30 µM (inactive)	> 30 µM (inactive)	> 30 µM (inactive)	O=C(Nc1ccc(-c2ccnc(Nc3ccc(N4CCOCC4)cc3)n2)cc1)C1CCCN1 (stereo not drawn) [XL-019]
> 30 µM (inactive)	> 30 µM (inactive)	> 30 µM (inactive)	> 30 µM (inactive)	> 30 µM (inactive)	> 30 µM (inactive)	> 30 µM (inactive)	COc1ccc(-c2ccc3c(N4CCOC[C@@H]4C)nc(N4CCOC[C@@H]4C)nc3n2)cc1CO [AZD-8055]
> 30 µM (inactive)	> 30 µM (inactive)	> 30 µM (inactive)	> 30 µM (inactive)	> 30 µM (inactive)	> 30 µM (inactive)	> 30 µM (inactive)	Cn1cc(-c2ccc(F)c(C(F)(F)F)c2)nc1C1CCN(c2ncnc3[nH]ncc23)CC1 [LY-2584702]
> 30 µM (inactive)	5.22 µM (active)	> 30 µM (inactive)	> 30 µM (inactive)	> 30 µM (inactive)	> 30 µM (inactive)	> 30 µM (inactive)	CCN1CCN(Cc2ccc(-c3cc4c(N[C@H](C)c5ccccc5)ncnc4[nH]3)cc2)CC1 [AEE-788]
